Experiments:
BACE = BACE (Homo sapiens (Human), UniProt P56817); test: BACE cell assay: secreted Aβ 1-40 in H4-APPsw cells (AlphaLISA/ELISA, Example 434B); assay type: cell-based; settings: in vitro cell activity, Aβ 1-40 in culture media after overnight treatment
[1] = target: truncated human beta-secretase (residues 1-458, His6-tagged) (Homo sapiens (Human), UniProt P56817); test: BACE enzyme assay (fluorescence quench, Example 434A); assay type: biochemical
Chain of truncated human beta-secretase (residues 1-458, His6-tagged) (P56817 22-458): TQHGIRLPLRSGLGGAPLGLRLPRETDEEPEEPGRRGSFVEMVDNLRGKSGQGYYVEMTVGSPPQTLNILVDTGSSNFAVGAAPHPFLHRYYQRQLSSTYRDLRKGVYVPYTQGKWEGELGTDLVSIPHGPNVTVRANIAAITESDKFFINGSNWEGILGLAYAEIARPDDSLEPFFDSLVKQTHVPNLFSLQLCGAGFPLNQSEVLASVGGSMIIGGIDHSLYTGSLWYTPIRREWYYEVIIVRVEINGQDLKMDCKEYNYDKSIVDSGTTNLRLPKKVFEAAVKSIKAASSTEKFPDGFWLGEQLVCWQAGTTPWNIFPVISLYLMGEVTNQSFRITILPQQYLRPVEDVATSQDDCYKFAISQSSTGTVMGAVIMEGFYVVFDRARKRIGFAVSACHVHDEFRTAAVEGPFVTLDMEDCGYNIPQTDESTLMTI

Chain of BACE (P56817 46-501 limits assumed): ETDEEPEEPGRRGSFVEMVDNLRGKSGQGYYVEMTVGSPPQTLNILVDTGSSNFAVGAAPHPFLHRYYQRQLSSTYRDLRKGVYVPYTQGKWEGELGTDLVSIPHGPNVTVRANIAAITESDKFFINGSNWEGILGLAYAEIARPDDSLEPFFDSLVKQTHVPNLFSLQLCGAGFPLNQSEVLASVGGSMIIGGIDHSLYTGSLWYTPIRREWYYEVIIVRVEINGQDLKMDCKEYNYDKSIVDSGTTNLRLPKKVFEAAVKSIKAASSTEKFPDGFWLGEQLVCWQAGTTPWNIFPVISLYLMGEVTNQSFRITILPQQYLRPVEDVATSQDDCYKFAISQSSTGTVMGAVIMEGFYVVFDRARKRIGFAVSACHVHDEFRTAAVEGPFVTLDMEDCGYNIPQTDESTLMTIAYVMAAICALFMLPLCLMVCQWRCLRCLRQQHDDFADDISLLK

| IC50 (BACE) [nM] | Compound | IC50 [1] [nM] |
| --- | --- | --- |
| < 1000 | CCOC1CCC2(CC1)Cc1ccc(-c3cccc(C#N)c3)cc1C21N=C(N)N(C)O1 (centres unmarked) [Compound 49] |  |
|  | CN1OC2(N=C1N)c1ccccc1CC21CCc2ccccc2CC1 (centres unmarked) [Compound 35] | 105 |

Source: patent publication US10336717B2, “Inhibitors of beta-secretase” (Vitae Pharmaceuticals, Inc., priority 2009, dated 2019)
